Measurements reported in ChEMBL document CHEMBL1909294, “Translating clinical findings into knowledge in drug safety evaluation--drug induced liver injury prediction system (DILIps)” (PLoS Comput Biol, 2011).

Columns and labels:
Hepatotoxicity [1] = system: Hepatotoxicity;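 as to HepSE Combined Scores: combined hepatic side effect score as listed in the training data of the Drug Induced Liver Injury Prediction System (DILIps)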;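 as to HepSE bilirubinemia: bilirubinemia hepatic side effect score drawn from the DILIps training data, a prediction system for drug-induced liver injury; call rule not given here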;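 as to HepSE cholecystitis: Cholecystitis-related hepatic side effect score drawn from the DILIps (drug-induced liver injury prediction) training data set; call rule not given here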;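 as to HepSE cholelithiasis: hepatic side effect score for cholelithiasis, drawn from the DILIps training data for predicting drug-induced liver injury; call rule not given here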;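 as to HepSE cirrhosis: cirrhosis hepatic side effect score taken from the DILIps (drug-induced liver injury prediction) training set; call rule not given here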;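 as to HepSE elevated liver function tests: hepatic side effect score for raised liver function tests, as recorded in the DILIps training set used for predicting drug-induced liver injury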; as to HepSE hepatic failure: call rule not given here
Hepatotoxicity [2] = system: Hepatotoxicity; remark: listed apart in the source;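 as to HepSE Combined Scores: combined hepatic side effect score as listed in the training data of the Drug Induced Liver Injury Prediction System (DILIps)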;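 as to HepSE bilirubinemia: bilirubinemia hepatic side effect score drawn from the DILIps training data, a prediction system for drug-induced liver injury; call rule not given here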;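 as to HepSE cholecystitis: Cholecystitis-related hepatic side effect score drawn from the DILIps (drug-induced liver injury prediction) training data set; call rule not given here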;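 as to HepSE cholelithiasis: hepatic side effect score for cholelithiasis, drawn from the DILIps training data for predicting drug-induced liver injury; call rule not given here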;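 as to HepSE cirrhosis: cirrhosis hepatic side effect score taken from the DILIps (drug-induced liver injury prediction) training set; call rule not given here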;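 as to HepSE elevated liver function tests: hepatic side effect score for raised liver function tests, as recorded in the DILIps training set used for predicting drug-induced liver injury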; as to HepSE hepatic failure: call rule not given here
Hepatotoxicity [3] = system: Hepatotoxicity; remark: listed apart in the source;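 as to HepSE Combined Scores: combined hepatic side effect score as listed in the training data of the Drug Induced Liver Injury Prediction System (DILIps)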;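 as to HepSE bilirubinemia: bilirubinemia hepatic side effect score drawn from the DILIps training data, a prediction system for drug-induced liver injury; call rule not given here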;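 as to HepSE cholecystitis: Cholecystitis-related hepatic side effect score drawn from the DILIps (drug-induced liver injury prediction) training data set; call rule not given here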;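 as to HepSE cirrhosis: cirrhosis hepatic side effect score taken from the DILIps (drug-induced liver injury prediction) training set; call rule not given here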;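 as to HepSE elevated liver function tests: hepatic side effect score for raised liver function tests, as recorded in the DILIps training set used for predicting drug-induced liver injury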; as to HepSE hepatic failure: call rule not given here
Hepatotoxicity [4] = system: Hepatotoxicity; remark: listed apart in the source;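 as to HepSE Combined Scores: combined hepatic side effect score as listed in the training data of the Drug Induced Liver Injury Prediction System (DILIps)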;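 as to HepSE bilirubinemia: bilirubinemia hepatic side effect score drawn from the DILIps training data, a prediction system for drug-induced liver injury; call rule not given here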;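 as to HepSE cholecystitis: Cholecystitis-related hepatic side effect score drawn from the DILIps (drug-induced liver injury prediction) training data set; call rule not given here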;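 as to HepSE cirrhosis: cirrhosis hepatic side effect score taken from the DILIps (drug-induced liver injury prediction) training set; call rule not given here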;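 as to HepSE elevated liver function tests: hepatic side effect score for raised liver function tests, as recorded in the DILIps training set used for predicting drug-induced liver injury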; as to HepSE hepatic failure: call rule not given here
Hepatotoxicity [5] = system: Hepatotoxicity; remark: listed apart in the source; as to HepSE hepatic failure: call rule not given here
Hepatotoxicity [6] = system: Hepatotoxicity; remark: listed apart in the source; as to HepSE hepatic failure: call rule not given here
Hepatotoxicity [7] = system: Hepatotoxicity; remark: listed apart in the source
Hepatotoxicity [8] = system: Hepatotoxicity; remark: listed apart in the source
Hepatotoxicity [9] = system: Hepatotoxicity; remark: listed apart in the source
Hepatotoxicity [10] = system: Hepatotoxicity; remark: listed apart in the source
Hepatotoxicity [11] = system: Hepatotoxicity; remark: listed apart in the source
Hepatotoxicity [12] = system: Hepatotoxicity; remark: listed apart in the source
Hepatotoxicity [13] = system: Hepatotoxicity; remark: listed apart in the source
Hepatotoxicity [14] = system: Hepatotoxicity; remark: listed apart in the source

Row | SMILES | HepSE_elevated liver function tests (Hepatotoxicity [1]) | HepSE_cirrhosis (Hepatotoxicity [2]) | HepSE_bilirubinemia (Hepatotoxicity [3]) | HepSE_Combined Scores (Hepatotoxicity [4]) | HepSE_hepatic failure (Hepatotoxicity [5]) | HepSE_cholecystitis (Hepatotoxicity [6]) | HepSE_cholelithiasis (Hepatotoxicity [7]) | HepSE_hepatomegaly (Hepatotoxicity [8]) | HepSE_jaundice (Hepatotoxicity [9]) | HepSE_liver fatty (Hepatotoxicity [10]) | HepSE_hepatic necrosis (Hepatotoxicity [11]) | HepSE_liver function tests abnormal (Hepatotoxicity [12]) | HepSE_liver disease (Hepatotoxicity [13]) | HepSE_hepatitis (Hepatotoxicity [14]) | also measured
1 | Nc1nc2ncc(CNc3ccc(C(=O)N[C@@H](CCC(=O)O)C(=O)O)cc3)nc2c(=O)[nH]1 [FOLIC ACID] | 0 | 0 | 0 | 0 | 0 | 0 | 0 | 0 | 0 | 0 | 0 | 0 | 0 | 0 | 
2 | CN(C)C(=O)C(CCN1CCC(O)(c2ccc(Cl)cc2)CC1)(c1ccccc1)c1ccccc1 [LOPERAMIDE] | 0 | 0 | 0 | 0 | 0 | 0 | 0 | 0 | 0 | 0 | 0 | 0 | 0 | 0 | 
3 | CC1(C)O[C@@H]2C[C@H]3[C@@H]4C[C@H](F)C5=CC(=O)CC[C@]5(C)[C@H]4[C@@H](O)C[C@]3(C)[C@]2(C(=O)CO)O1 [FLURANDRENOLIDE] | 0 | 0 | 0 | 0 | 0 | 0 | 0 | 0 | 0 | 0 | 0 | 0 | 0 | 0 | 
4 | Oc1ncnc2[nH]ncc12 [ALLOPURINOL] | 0 | 0 | 1 | 5 | 0 | 0 | 0 | 1 | 1 | 0 | 1 | 0 | 0 | 1 | 
5 | CCOC(=O)c1cncn1[C@H](C)c1ccccc1 [ETOMIDATE] | 0 | 0 | 0 | 0 | 0 | 0 | 0 | 0 | 0 | 0 | 0 | 0 | 0 | 0 | 
6 | Cc1ccc(Cl)c(Nc2ccccc2C(=O)O)c1Cl [MECLOFENAMIC ACID] | 0 | 0 | 0 | 1 | 0 | 0 | 0 | 0 | 1 | 0 | 0 | 0 | 0 | 0 | 
7 | CN(C)CC(c1ccc(O)cc1)C1(O)CCCCC1 (configuration not stated) [DESVENLAFAXINE] | 0 | 0 | 0 | 0 | 0 | 0 | 0 | 0 | 0 | 0 | 0 | 0 | 0 | 0 | 
8 | CC[C@H]1OC(=O)[C@H](C)[C@@H](O[C@H]2C[C@@](C)(OC)[C@@H](O)[C@H](C)O2)[C@H](C)[C@@H](O[C@@H]2O[C@H](C)C[C@H](N(C)C)[C@H]2O)[C@](C)(OC)C[C@@H](C)C(=O)[C@H](C)[C@@H](O)[C@]1(C)O [CLARITHROMYCIN] | 0 | 0 | 0 | 4 | 1 | 0 | 0 | 1 | 1 | 0 | 0 | 0 | 0 | 1 | 
9 | O=P1(N(CCCl)CCCl)NCCCO1 (configuration not stated) [CYCLOPHOSPHAMIDE ANHYDROUS] |  |  |  |  |  |  |  |  |  |  |  |  |  |  | HepSE_elevated liver function tests (Hepatotoxicity [1]; Liver): 0; HepSE_cirrhosis (Hepatotoxicity [2]; Liver): 0; HepSE_bilirubinemia (Hepatotoxicity [3]; Liver): 1; HepSE_Combined Scores (Hepatotoxicity [4]; Liver): 3; HepSE_hepatic failure (Hepatotoxicity [5]; Liver): 0; HepSE_cholecystitis (Hepatotoxicity [6]; Liver): 0; HepSE_cholelithiasis (Hepatotoxicity [7]; Liver): 0; HepSE_hepatomegaly (Hepatotoxicity [8]; Liver): 1; HepSE_jaundice (Hepatotoxicity [9]; Liver): 1; HepSE_liver fatty (Hepatotoxicity [10]; Liver): 0; HepSE_hepatic necrosis (Hepatotoxicity [11]; Liver): 0; HepSE_liver function tests abnormal (Hepatotoxicity [12]; Liver): 0; HepSE_liver disease (Hepatotoxicity [13]; Liver): 0; HepSE_hepatitis (Hepatotoxicity [14]; Liver): 0
10 | Cc1cccc(CN2CCN(C(c3ccccc3)c3ccc(Cl)cc3)CC2)c1 (configuration not stated) [MECLIZINE] | 0 | 0 | 0 | 0 | 0 | 0 | 0 | 0 | 0 | 0 | 0 | 0 | 0 | 0 | 
11 | C#C[C@]1(O)CC[C@H]2[C@@H]3CCC4=CC(=O)CC[C@@H]4[C@H]3CC[C@@]21CC [LEVONORGESTREL] |  |  |  |  |  |  |  |  |  |  |  |  |  |  | HepSE_elevated liver function tests (Hepatotoxicity [1]; Liver): 0; HepSE_cirrhosis (Hepatotoxicity [2]; Liver): 0; HepSE_bilirubinemia (Hepatotoxicity [3]; Liver): 0; HepSE_Combined Scores (Hepatotoxicity [4]; Liver): 0; HepSE_hepatic failure (Hepatotoxicity [5]; Liver): 0; HepSE_cholecystitis (Hepatotoxicity [6]; Liver): 0; HepSE_cholelithiasis (Hepatotoxicity [7]; Liver): 0; HepSE_hepatomegaly (Hepatotoxicity [8]; Liver): 0; HepSE_jaundice (Hepatotoxicity [9]; Liver): 0; HepSE_liver fatty (Hepatotoxicity [10]; Liver): 0; HepSE_hepatic necrosis (Hepatotoxicity [11]; Liver): 0; HepSE_liver function tests abnormal (Hepatotoxicity [12]; Liver): 0; HepSE_liver disease (Hepatotoxicity [13]; Liver): 0; HepSE_hepatitis (Hepatotoxicity [14]; Liver): 0
12 | CN(Cc1ccc(C(C)(C)C)cc1)Cc1cccc2ccccc12 [BUTENAFINE] | 0 | 0 | 0 | 0 | 0 | 0 | 0 | 0 | 0 | 0 | 0 | 0 | 0 | 0 | 
13 | COC(=O)Nc1nc2ccc(C(=O)c3ccccc3)cc2[nH]1 [MEBENDAZOLE] | 0 | 0 | 0 | 1 | 0 | 0 | 0 | 0 | 0 | 0 | 0 | 0 | 0 | 1 | 
